Data published in US20250283040A1, “Methods to Expand a T Regulatory Cell Master Cell Bank” (The Trustees of the University of Pennsylvania, priority 2010, published 2025).
“And” between values parts separate entries of the source, which are not always exact repeats. Equal values may be shown once.

Columns and labels:
Type in all cases: cell-based, human
PB nTreg [1] = assay: Cell size and viability of nTreg cultures by ViCell; details: sort-purified nTregs stimulated with KT64/86 cells; Rapamycin 109 nM
Method: (§1) Where indicated, Rapamycin (Rapammune, Wyeth-Ayerst) at 109 nM was added on day 0 and with subsequent media supplementation. Cell size and viability were determined by ViCell (Beckman Coulter).

PB nTreg [2] = assay: Ex vivo expansion of PB nTreg cultures (fold expansion); details: sort-purified nTregs, first stimulation with KT64/86 cells; Rapamycin 109 nM
Method: Experiments were designed to expand Tregs isolated from adult peripheral blood. Tregs were isolated by a two step procedure in which CD4 cells were first enriched by depleting CD8, −14, and −19+ cells with GMP-grade mAb coated microbeads, followed by positive selection of CD25++ cells using GMP-grade anti-CD25 microbeads (either 75μl/2×10^8 cells, Miltenyi). Treg were subsequently expanded in vitro by repeated stimulation with CD3/28 beads or KT64/86 loaded with anti-CD3 antibody. In addition, the expansion scheme involved expanding Tregs in the presence of Rapamycin (109 nM) and restimulation based upon cell size.
For all experiments, non-mobilized peripheral blood Leukapheresis products were collected from normal adult volunteers using FDA approved/cleared apheresis instruments. Written informed consent was obtained from all subjects. nTreg were purified using GMP magnetic beads or by sorting. […]
as §1

nTreg cultures = assay: Intracellular cytokine staining after PMA/Ionomycin
Method: Fresh or frozen nTreg were cultured in supplemented X-Vivo 15 for 4 hours±PMA ([…]) and Ionomycin (1 μg/ml) in the presence of Brefeldin A (100 ng/ml) (all Sigma). Frozen/thawed samples were cultured for 1 hour at 37° C. prior to re-stimulation. Cells were then harvested and stained for CD4, 25, Foxp3 and cytokine (IL-2, IL-4, IL-17, and IFNγ) or Granzyme B using the standard Foxp3 intracellular staining kit.

[3] = sort-purified nTreg re-stimulated with KT64/86

CO[C@H]1C[C@@H]2CC[C@@H](C)[C@@](O)(O2)C(=O)C(=O)N2CCCC[C@H]2C(=O)O[C@H]([C@H](C)C[C@@H]2CC[C@@H](O)[C@H](OC)C2)CC(=O)[C@H](C)/C=C(\C)[C@@H](O)[C@@H](OC)C(=O)[C@H](C)C[C@H](C)/C=C/C=C/C=C/1C [Rapamycin]
Peak cell size with Rapamycin (PB nTreg [1]): 9.9 µm | Expansion with Rapamycin (PB nTreg [2]): 55 fold | % of PMA/ionomycin stimulated cells secreting IL-2, with Rapamycin (nTreg cultures; [3]): ≤ 3% | % of cells secreting IFNγ, with Rapamycin (nTreg cultures; [3]): ≤ 2% | % IL-4+ cells, start of the increase with successive re-stimulations (nTreg cultures; with Rapamycin): 8±2% | % IL-4+ cells after the last (fourth) re-stimulation (nTreg cultures; with Rapamycin, Foxp3+ and −): 58±17% and > 50%
